In patent US20200077658A1, “Pesticidal Compounds” (BASF SE, priority 2016, published 2020):

Tests used:
Assay type in all cases: in vivo
[1] = test system: Diamond Back Moth (Plutella xylostella); test: Action on diamond back moth (Plutella xylostella), cabbage leaf dip; conditions: foliar, 3rd instar larvae on dipped cabbage leaves, 72 hours after treatment, read-out: mortality in comparison with untreated controls
Description: The active compound is dissolved at the desired concentration in a mixture of 1:1 (vol:vol) distilled water:acetone. Surfactant (Kinetic® HV) is added at a rate of 0.01% (vol/vol).The test solution is prepared at the day of use.
Leaves of cabbage were dipped in test solution and air-dried. Treated leaves were placed in petri dishes lined with moist filter paper and inoculated with ten 3rd instar larvae. Mortality was recorded 72 hours after treatment. Feeding damages were also recorded using a scale of 0-100%.

[2] = test system: Southern Armyworm (Spodoptera eridania), 2nd Instar Larvae; test: Action on southern armyworm (Spodoptera eridania), 2nd instar larvae, sprayed lima bean plants; conditions: 96 h, 2nd instar larvae on lima bean, 4 days after treatment, read-out: mortality in comparison with untreated controls
Description: The active compounds were formulated by a Tecan liquid handler in 100% cyclohexanone as a 10,000 ppm solution supplied in tubes. The 10,000 ppm solution was serially diluted in 100% cyclohexanone to make interim solutions. These served as stock solutions for which final dilutions were made by the Tecan in 50% acetone:50% water (v/v) into 10 or 20 ml glass vials. A nonionic surfactant (Kinetic®) was included in the solution at a volume of 0.01% (v/v). The vials were then inserted into an automated electrostatic sprayer equipped with an atomizing nozzle for application to plants/insects.
Lima bean plants (variety Sieva) were grown 2 plants to a pot and selected for treatment at the 1st true leaf stage. Test solutions were sprayed onto the foliage by an automated electrostatic plant sprayer equipped with an atomizing spray nozzle. The plants were dried in the sprayer fume hood and then removed from the sprayer. Each pot was placed into perforated plastic bags with a zip closure. About 10 to 11 armyworm larvae were placed into the bag and the bags zipped closed. Test plants were maintained in a growth room at about 250C and about 20-40% relative humidity for 4 days, avoiding direct exposure to fluorescent light (24 hour photoperiod) to prevent trapping of heat inside the bags. Mortality and reduced feeding were assessed 4 days after treatment, compared to untreated control plants.

[3] = test system: tobacco budworm (Heliothis virescens); test: Action on tobacco budworm (Heliothis virescens), 96-well microtiter plate diet test; conditions: 120 h, egg and larval mortality after 5 days, read-out: mortality in comparison with untreated controls
Description: For evaluating control of tobacco budworm (Helliothis virescens) the test unit consisted of 96-well-microtiter plates containing an insect diet and 15-25 H. virescens eggs.
The compounds were formulated using a solution containing 75% v/v water and 25% v/v DMSO. Different concentrations of formulated compounds were sprayed onto the insect diet at 10 μl, using a custom built micro atomizer, at two replications.
After application, microtiter plates were incubated at about 28±1° C. and about 80±5% relative humidity for 5 days. Egg and larval mortality was then visually assessed.

[4] = test system: yellow fever mosquito (Aedes aegypti); test: whole plant or invertebrate; conditions: 48 h, larval mortality visually assessed after 2 days, read-out: mortality in comparison with untreated controls
Description: For evaluating control of yellow fever mosquito (Aedes aegypti) the test unit consisted of 96-well-microtiter plates containing 200 μl of tap water per well and 5-15 freshly hatched A. aegypti larvae.
The active compounds were formulated using a solution containing 75% (v/v) water and 25% (v/v) DMSO. Different concentrations of formulated compounds or mixtures were sprayed onto the insect diet at 2.5 μl, using a custom built micro atomizer, at two replications.
After application, microtiter plates were incubated at 28±1° C., 80±5% RH for 2 days. Larval mortality was then visually assessed.

[5] = test system: boll weevil (Anthonomus grandis); test: Action on boll weevil (Anthonomus grandis), 96-well microtiter plate diet test; conditions: 120 h, egg and larval mortality after 5 days, read-out: mortality in comparison with untreated controls
Description: For evaluating control of boll weevil (Anthonomus grandis) the test unit consisted of 96-well-microtiter plates containing an insect diet and 5-10 A. grandis eggs.
The compounds were formulated using a solution containing 75% v/v water and 25% v/v DMSO. Different concentrations of formulated compounds were sprayed onto the insect diet at 5 μl, using a custom built micro atomizer, at two replications.
After application, microtiter plates were incubated at about 25±1° C. and about 75±5% relative humidity for 5 days. Egg and larval mortality was then visually assessed.

[6] = test system: Orchid thrips (Dichromothrips corbetti); test: Action on orchid thrips (Dichromothrips corbetti), floral-immersion technique; conditions: adult thrips, mortality 72 hours after treatment, read-out: mortality in comparison with untreated controls
Description: Dichromothrips corbetti adults used for bioassay were obtained from a colony maintained continuously under laboratory conditions. For testing purposes, the test compound is diluted in a 1:1 mixture of acetone:water (vol:vol), plus Kinetic® HV at a rate of 0.01% v/v.
Thrips potency of each compound was evaluated by using a floral-immersion technique. All petals of individual, intact orchid flowers were dipped into treatment solution and allowed to dry in Petri dishes. Treated petals were placed into individual re-sealable plastic along with about 20 adult thrips. All test arenas were held under continuous light and a temperature of about 28° C. for duration of the assay. After 3 days, the numbers of live thrips were counted on each petal. The percent mortality was recorded 72 hours after treatment.

[7] = test system: Silverleaf Whitefly (Bemisia argentifoli) (Adults); test: Action on silverleaf whitefly (Bemisia argentifoli) adults, sprayed cotton plants; conditions: Bemisia argentifolii, 72 h, 3 days after treatment, read-out: mortality in comparison with untreated controls
Description: The active compounds were formulated by a Tecan liquid handler in 100% cyclohexanone as a 10,000 ppm solution supplied in tubes. The 10,000 ppm solution was serially diluted in 100% cyclohexanone to make interim solutions. These served as stock solutions for which final dilutions were made by the Tecan in 50% acetone:50% water (v/v) into 5 or 10 ml glass vials. A nonionic surfactant (Kinetic®) was included in the solution at a volume of 0.01% (v/v). The vials were then inserted into an automated electrostatic sprayer equipped with an atomizing nozzle for application to plants/insects.
Cotton plants at the cotyledon stage (one plant per pot) were sprayed by an automated electrostatic plant sprayer equipped with an atomizing spray nozzle. The plants were dried in the sprayer fume hood and then removed from the sprayer. Each pot was placed into a plastic cup and about 10 to 12 whitefly adults (approximately 3-5 days old) were introduced. The insects were collected using an aspirator and a nontoxic Tygon® tubing connected to a barrier pipette tip. The tip, containing the collected insects, was then gently inserted into the soil containing the treated plant, allowing insects to crawl out of the tip to reach the foliage for feeding. Cups were covered with a reusable screened lid. Test plants were maintained in a growth room at about […] and about 20-40% relative humidity for 3 days, avoiding direct exposure to fluorescent light (24 hour photoperiod) to prevent trapping of heat inside the cup. Mortality was assessed 3 days after treatment, compared to untreated control plants.

CC(/C=N/N=C1\SCC(=O)N1c1ccccc1C(C)C)=C\c1ccc(N(C)c2ccc(OC(F)(F)F)cc2)nc1 [Compound C-12, (2Z)-3-(2-isopropylphenyl)-2-[(E)-[(E)-2-methyl-3-[6-[N-methyl-4-(trifluoromethoxy)anilino]-3-pyridyl]prop-2-enylidene]hydrazono]thiazolidin-4-one]
≥ 75%: mortality at 500 ppm [1] | mortality at 300 ppm [2] | mortality at 800 ppm [3] | mortality at 800 ppm [4] | mortality at 800 ppm [5] | mortality at 500 ppm [6] | mortality at 300 ppm [7]

CC(/C=N/N=C1\SCC(=O)N1c1ccccc1C(C)C)=C\c1cnc(N(C)c2ccc(OC(F)(F)F)cc2)nc1 [Compound C-7, (2Z)-3-(2-isopropylphenyl)-2-[(E)-[(E)-2-methyl-3-[2-[N-methyl-4-(trifluoromethoxy)anilino]pyrimidin-5-yl]prop-2-enylidene]hydrazono]thiazolidin-4-one]
≥ 75%: mortality at 500 ppm [1] | mortality at 300 ppm [2] | mortality at 800 ppm [3] | mortality at 800 ppm [4] | mortality at 800 ppm [5] | mortality at 500 ppm [6] | mortality at 300 ppm [7]

CC(/C=N/N=C1\SCC(=O)N1c1ccccc1C(C)C)=C\c1cnc(N(C)c2ccc(OC(F)(F)F)cc2)c(N(C)C)c1 [Compound C-9, (2Z)-2-[(E)-[(E)-3-[5-(dimethylamino)-6-[N-methyl-4-(trifluoromethoxy)anilino]-3-pyridyl]-2-methyl-prop-2-enylidene]hydrazono]-3-(2-isopropylphenyl)thiazolidin-4-one]
≥ 75%: mortality at 500 ppm [1] | mortality at 300 ppm [2] | mortality at 800 ppm [3] | mortality at 800 ppm [4] | mortality at 800 ppm [5] | mortality at 500 ppm [6]

CC(/C=N/NC(=S)Nc1ccccc1C(C)C)=C\c1cnc(Nc2ccc(OC(F)(F)F)cc2)nc1 [Compound C-1, 1-(2-isopropylphenyl)-3-[(E)-[(E)-2-methyl-3-[2-[4-(trifluoromethoxy)anilino]pyrimidin-5-yl]prop-2-enylidene]amino]thiourea]
≥ 75%: mortality at 500 ppm [1] | mortality at 300 ppm [2] | mortality at 800 ppm [3] | mortality at 800 ppm [4] | mortality at 800 ppm [5] | mortality at 500 ppm [6]

CC(/C=N/NC(=S)Nc1ccccc1C(C)C)=C\c1ccc(N(C)c2ccc(OC(F)(F)F)cc2)nc1 [Compound C-15, 1-(2-isopropylphenyl)-3-[(E)-[(E)-2-methyl-3-[6-[N-methyl-4-(trifluoromethoxy)anilino]-3-pyridyl]prop-2-enylidene]amino]thiourea]
≥ 75%: mortality at 500 ppm [1] | mortality at 300 ppm [2] | mortality at 800 ppm [3] | mortality at 800 ppm [5] | mortality at 500 ppm [6] | mortality at 300 ppm [7]

CC(/C=N/N=C1\SCC(=O)N1c1ccccc1C(C)C)=C\c1ccc(N(C)c2ccc(OC(F)(F)F)cc2)nn1 [Compound C-27, (2Z)-3-(2-isopropylphenyl)-2-[(E)-[(E)-2-methyl-3-[6-[N-methyl-4-(trifluoromethoxy)anilino]pyridazin-3-yl]prop-2-enylidene]hydrazono]thiazolidin-4-one]
≥ 75%: mortality at 500 ppm [1] | mortality at 300 ppm [2] | mortality at 800 ppm [3] | mortality at 800 ppm [4] | mortality at 800 ppm [5] | mortality at 500 ppm [6]

CC(/C=N/NC(=S)Nc1ccccc1C(C)C)=C\c1ccc(N(C)c2ccc(OC(F)(F)F)cc2)nn1 [Compound C-26, 1-(2-isopropylphenyl)-3-[(E)-[(E)-2-methyl-3-[6-[N-methyl-4-(trifluoromethoxy)anilino]pyridazin-3-yl]prop-2-enylidene]amino]thiourea]
≥ 75%: mortality at 500 ppm [1] | mortality at 300 ppm [2] | mortality at 800 ppm [3] | mortality at 800 ppm [5] | mortality at 500 ppm [6] | mortality at 300 ppm [7]

CC(/C=N/NC(=S)Nc1ccccc1C(C)C)=C\c1cnc(N(C)c2ccc(OC(F)(F)F)cc2)c(N(C)C)c1 [Compound C-8, 1-[(E)-[(E)-3-[5-(dimethylamino)-6-[N-methyl-4-(trifluoromethoxy)anilino]-3-pyridyl]-2-methyl-prop-2-enylidene]amino]-3-(2-isopropylphenyl)thiourea]
≥ 75%: mortality at 500 ppm [1] | mortality at 300 ppm [2] | mortality at 800 ppm [3] | mortality at 800 ppm [5] | mortality at 300 ppm [7]

Cc1nc(N(C)c2ccc(OC(F)(F)F)cc2)ncc1CC(C)/C=N/NC(=S)Nc1ccccc1C(C)C (stereo not shown) [Compound C-22, 1-(2-isopropylphenyl)-3-[(E)-[2-methyl-3-[4-methyl-2-[N-methyl-4-(trifluoromethoxy)anilino]pyrimidin-5-yl]propylidene]amino]thiourea]
≥ 75%: mortality at 800 ppm [3] | mortality at 800 ppm [5] | mortality at 300 ppm [7]
